The results in this text go back to paper PMC4222603, “Dual inhibition of HIV-1 replication by integrase-LEDGF allosteric inhibitors is predominant at the post-integration stage” (Retrovirology, 2013).

In general, IC50 refers to the concentration needed to halve the response being measured. The CC50 is the concentration at which the toxic effect on the cells reaches its halfway point. Low readings indicate harm at low concentration, high ones better tolerance by the cells. What is called Kd is the free concentration of one partner at which half of the binding sites on the other are occupied at equilibrium, for simple one-to-one binding. Read a low Kd as tighter binding. Usually EC50 stands for the concentration giving half of the maximal effect.

Data set [1] has as its target T1, IN-CCD/LEDGF-IBD interaction (Human immunodeficiency virus type 1 group M subtype B, UniProt P12497, F1332K).
T1 construct: cloning the integrase region (residues 50 to 202, encoding the catalytic core domain); made in house
The experiment in a line: HTRF-based CCD-IBD interaction assay. The following applies: Table 1. Format: binding, HIV-1. From the text:
All HTRF® conjugated monoclonal antibodies were purchased from Cisbio Bioassays.

In data set [2] the test system is NL4-3 Integrase G140S, Q148H. The data set can be described thus: Antiviral assay on INSTI-resistant virus. The settings on record: ratio EC50 resistant virus / wt virus. Format: cell-based, HIV-1.
For data set [3], the system named is NL4-3 IN T174I mutant virus. Format: cell-based, HIV-1.
A further data set is described as follows: in vitro. Format: cell-based. The settings on record: human. The protocol:
Growth inhibition was monitored in a proliferating human T-cell line (MT-4) with different concentrations of compounds. ATP levels were quantified using the CellTiter-Glo® luminescent reagent (Promega) to measure the ability of a compound to inhibit cell growth, an indication of the compound’s cytotoxicity. Cytotoxicity was evaluated at either day 2 or day 5.

The target in another data set is IN-CCD wt (Human immunodeficiency virus type 1 group M subtype B, UniProt P12497, F1332K).
Data set [4] has as its system NL4-3 RT M41L, D67N, K103N, M184V, L210W, T215Y. The data set can be described thus: Antiviral assay on Multi-drug (NRTI + NNRTI) resistant virus. Format: cell-based, HIV-1. The settings on record: ratio EC50 resistant virus / wt virus; NRTI + NNRTI mutations.
Data set [5] relates to NL4-3 HIV-1 virus bearing the T174I mutation in IN. The experiment in a line: microbe, parasite or virus in culture. Format: cell-based. The following applies: Human immunodeficiency virus 1, NL43, read-out: EC50 on NL4-3 IN T174I mutant.
For a further data set, the system named is HxB2 HIV-1. The experiment in a line: Antiviral assay in MT4 cells infected with HxB2. Format: cell-based. The following applies: Human immunodeficiency virus 1, HXB2, MT4; Table 1; read-out: HxB2 EC50 (MT4 assays).
The target of data set [6] is T2, IN 3′ processing activity (Human immunodeficiency virus type 1 group M subtype B, UniProt P12497).
T2 construct: were carried out at 37°C with the full-length HIV-1 IN
The experiment in a line: IN 3′ processing radioactive assay. Format: biochemical, HIV-1. The following applies: 0.01 to 100 μM. From the text: Sequences of the different oligonucleotides (ODN) substrates are U5B: 5′-[…]-3′, U5A: 5′- […]-3′ and U5B-2: 5′-[…]-3′. ODNs were purchased from Eurogentec and further purified by electrophoresis in a denaturing 16% acrylamide/urea gel. For activity assays, ODNs (U5B and U5B-2) were radiolabelled with T4 polynucleotide kinase (New England Biolabs) and γ[^32-P]ATP (3000 Ci/mmol) (Amersham), and purified on a Sephadex G-10 column (GE Healthcare). Double-stranded ODNs (U5B with U5A and U5B-2 with U5A used for 3′-processing and strand transfer reactions, respectively) were obtained by mixing equimolar amounts of complementary strands in the presence of 100 mM NaCl.
IN activity assays – 3′-processing, strand transfer – were carried out at 37°C with the full-length HIV-1 IN, in a buffer containing 10 mM HEPES (pH 7.2), 1 mM DTT, 7.5 mM MgCl2 in the presence of 6.25 nM DNA (3′-processing) or 12.5 nM DNA (strand transfer) as described previously. For negative control, 100 mM Na2EDTA was added to the reaction before incubation. Products were separated by electrophoresis in denaturing 16% acrylamide/urea gels. Gels were analysed with a Molecular Dynamics STORM phosphoimager and quantified with ImageQuant™ 4.1 software.

The test system of data set [7] is VSV-G-pseudotyped NL4-3Δenv-luc. The data set can be described thus: microbe, parasite or virus in culture. Format: cell-based, HIV-1.
For a further data set, the target named is IN-LEDGF/p75 interaction (Human immunodeficiency virus type 1 group M subtype B, UniProt P12497). The experiment in a line: biochemical. How it is done: IN-LEDGF HTRF® assay was performed in 384-well low volume black polystyrene plates (Corning) using IN-LEDGF assay buffer (25 mM Tris–HCl pH 7.4, 150 mM NaCl, 2 mM MgCl2, 0.4 M KF, 0.1% Igepal CA-630, 0.1% bovine serum albumin, 1 mM DTT). […] The HTRF ratio was converted to % inhibition and analyzed by fitting a sigmoidal dose–response equation with Hill slope to determine the IC50 of the compound.

In data set [8] the test system is NL4-3 RT M41L, D67N, T69N, K70R, T215F, K219E. The experiment in a line: Antiviral assay on NRTI-resistant virus. Format: cell-based, HIV-1. The settings on record: ratio EC50 resistant virus / wt virus.
The subject of data set [9] is HIV-1 proviral DNA (late reverse transcription product, integrated DNA). The data set can be described thus: Quantification of viral cDNA by real-time PCR in infected MT4 cells. Format: cell-based. How it is done: Prior to infection, viral stocks were treated 1 h at 37°C with 100 U per mL of DNAseI (Roche Applied Science). MT4 cells (6x10^6) were infected with virus at MOI = 0.001. At 7 h, 24 h and 48 h post-infection, cells were harvested, washed twice in PBS and DNA was extracted using the QIAamp Blood DNA Minikit (Qiagen). Quantifications of viral DNA were performed by real-time PCR using the LightCycler 480 system (Roche Applied Science). Primers, probes, and PCR run conditions were described previously. The copy number of HIV-1 late reverse transcription product (LRT) was determined using standard curves obtained by amplification of cloned DNA containing the matched sequences. The copy number of integrated HIV-1 DNA was determined in reference to a standard curve generated by concomitant two-stage PCR amplification of a serial dilution of the standard HeLa HIVR7-Neo cell DNA [59]. Copy numbers of each viral form were normalized with the number of cells obtained by the quantification by PCR of the β-globin gene according to the manufacturer instructions (Roche Applied Science).

The test system of data set [10] is NL4-3 Protease L10R, M46I, L63P, V82T, I84V. The experiment in a line: Antiviral assay on PI-resistant virus. Format: cell-based, HIV-1. The settings on record: ratio EC50 resistant virus / wt virus.
The test system of a further data set is NL4-3 RT K103N, Y181C. The data set can be described thus: Antiviral assay on NNRTI-resistant virus. Format: cell-based, HIV-1. The settings on record: ratio EC50 resistant virus / wt virus.
For the next data set, the system named is HIV-1 mutant IN A128T. The data set can be described thus: Antiretroviral activity on HIV-1 mutant IN A128T. Format: cell-based.
The test system of data set [11] is VSV-G-pseudotyped HIV-1 Δenv-Luc NL4-3. The data set can be described thus: Time-of-addition experiment, single-round infection of MT4 cells. Format: cell-based. The settings on record: 25 μM (saturating).

Turning to `Cc1nc2c(c(-c3ccc4c(c3)CCCO4)c1C(OC(C)(C)C)C(=O)O)CCCC2` (stereo not drawn) [Mut101, 2-(tert-butoxy)-2-[4-(3,4-dihydro-2H-1-benzopyran-6-yl)-2-methyl-5,6,7,8-tetrahydroquinolin-3-yl]acetic acid], the IC50 in data set [1] stood at 230 nM; at IN-LEDGF/p75 interaction (IC50 on IN-LEDGF interaction inhibition, LEDGF competition, increased value, highest LEDGF/p75 competing concentration (range 7.5 nM to 480 nM)), 680 nM; on IN-LEDGF/p75 interaction (IC50 on IN-LEDGF interaction inhibition, LEDGF competition, starting value, lowest LEDGF/p75 competing concentration (range 7.5 nM to 480 nM)), 97 nM; at IN-LEDGF/p75 interaction (IN-LEDGF IC50, Table 1, HTRF, full length proteins) it was 200 nM. For the same compound, the “EC50 fold change INSTIs” value in data set [2] was found to be 1. Also, in data set [3], the “Infectivity of NL4-3 IN T174I virus produced in presence of compound” value is reported as “insensitive”. Also, the CC50 in the data set “in vitro” is > 50000 nM. The compound also registered a Kd on IN-CCD wt of 120 nM. In addition, in data set [4], the “EC50 fold change Multi-drug” value was 1. For the same compound, the 50% effective concentration (EC50) is > 50000 nM in data set [5]; 92 nM in the data set with HxB2 HIV-1; 9000 ± 1500 nM in data set [7] (Human immunodeficiency virus 1, NL43, MT4, read-out: NL4-3 EC50 Single-round). Besides, in [6], the “Maximum inhibition of IN 3′ processing” value is on record as 25-30%. In data set [7], the SR/MR ratio was 18. For the same compound, the “EC50 fold change NRTIs” value in data set [8] worked out at 1. In [9], the “Integration of the proviral DNA (qPCR)” value is “inhibited the integration of the proviral DNA”. Also, the “Production of proviral DNA at reverse transcription (qPCR)” value in [9] is “not the production of proviral DNA at reverse transcription”. Besides, the “EC50 fold change PI” value in data set [10] stood at 1. The “EC50 fold change NNRTIs” value in the data set on NL4-3 RT K103N, Y181C was found to be 1. In addition, the “ARV activity on HIV-1 mutant IN A128T” value with HIV-1 mutant IN A128T is “full ARV activity”. Moreover, the “Behaviour in time-of-addition experiment” value in [11] is on record as “behaved as an inhibitor of integration”.
